ChEMBL document CHEMBL4138175, “Newly designed organotin(IV) carboxylates with peptide linkage: Synthesis, structural elucidation, physicochemical characterizations and pharmacological investigations” (Eur J Med Chem, 2018)
In brackets after ≈: the same amount, converted by molar mass. Activity calls are given as the source filed them. No cut-off for these calls is given here.

Experiments:
[1] = tested on: Serratia marcescens; test: Antibacterial activity against Serratia marcescens assessed as zone of inhibition by measuring activity index after 24 to 48 hrs by well diffusion method relative to tetracycline; type: functional, organism-based
[2] = tested on: Staphylococcus epidermidis; test: Antibacterial activity against Staphylococcus epidermidis assessed as zone of inhibition after 24 to 48 hrs by well diffusion method; type: functional
[3] = tested on: Staphylococcus aureus; test: Antibacterial activity against Staphylococcus aureus assessed as zone of inhibition by measuring activity index after 24 to 48 hrs by well diffusion method relative to ampicillin; type: functional, organism-based
[4] = tested on: NCI-H157; test: Cytotoxicity against human NCI-H157 cells at 0.1 uM after 48 hrs by sulforhodamine B assay; type: functional
[5] = tested on: Streptococcus pyogenes; test: Antibacterial activity against Streptococcus pyogenes assessed as zone of inhibition after 24 to 48 hrs by well diffusion method; type: functional
[6] = tested on: Staphylococcus aureus; test: Antibacterial activity against Staphylococcus aureus assessed as zone of inhibition by measuring activity index after 24 to 48 hrs by well diffusion method relative to tetracycline; type: functional, organism-based
[7] = tested on: Klebsiella pneumoniae; test: Antibacterial activity against Klebsiella pneumoniae assessed as zone of inhibition by measuring activity index after 24 to 48 hrs by well diffusion method relative to penicillin G; type: functional, organism-based
[8] = tested on: Pseudomonas aeruginosa; test: Antibacterial activity against Pseudomonas aeruginosa assessed as zone of inhibition after 24 to 48 hrs by well diffusion method; type: functional
[9] = tested on: NCI-H157; test: Cytotoxicity against human NCI-H157 cells at 10 uM after 48 hrs by sulforhodamine B assay; type: functional
[10] = tested on: NCI-H157; test: Cytotoxicity against human NCI-H157 cells after 48 hrs by sulforhodamine B assay; type: functional, cell-based
[11] = tested on: NCI-H157; test: Cytotoxicity against human NCI-H157 cells at 100 uM after 48 hrs by sulforhodamine B assay; type: functional
[12] = tested on: NCI-H157; test: Cytotoxicity against human NCI-H157 cells at 1 uM after 48 hrs by sulforhodamine B assay; type: functional
[13] = tested on: Staphylococcus aureus; test: Antibacterial activity against Staphylococcus aureus assessed as zone of inhibition by measuring activity index after 24 to 48 hrs by well diffusion method relative to amoxicillin; type: functional, organism-based
[14] = tested on: Escherichia coli; test: Antibacterial activity against Escherichia coli assessed as zone of inhibition after 24 to 48 hrs by well diffusion method; type: functional
[15] = tested on: Staphylococcus aureus; test: Antibacterial activity against Staphylococcus aureus assessed as zone of inhibition after 24 to 48 hrs by well diffusion method; type: functional
[16] = tested on: Klebsiella pneumoniae; test: Antibacterial activity against Klebsiella pneumoniae assessed as zone of inhibition after 24 to 48 hrs by well diffusion method; type: functional
[17] = tested on: Escherichia coli; test: Antibacterial activity against Escherichia coli assessed as zone of inhibition by measuring activity index after 24 to 48 hrs by well diffusion method relative to ampicillin; type: functional, organism-based
[18] = tested on: Pseudomonas aeruginosa; test: Antibacterial activity against Pseudomonas aeruginosa assessed as zone of inhibition by measuring activity index after 24 to 48 hrs by well diffusion method relative to penicillin G; type: functional, organism-based
[19] = tested on: Leishmania major; test: Antileishmanial activity against Leishmania major promastigotes at 1 uM after 72 hrs by MTT assay relative to control; type: functional
[20] = tested on: Pseudomonas aeruginosa; test: Antibacterial activity against Pseudomonas aeruginosa assessed as zone of inhibition by measuring activity index after 24 to 48 hrs by well diffusion method relative to tetracycline; type: functional, organism-based
[21] = tested on: Pseudomonas aeruginosa; test: Antibacterial activity against Pseudomonas aeruginosa assessed as zone of inhibition by measuring activity index after 24 to 48 hrs by well diffusion method relative to amoxicillin; type: functional, organism-based
[22] = tested on: Leishmania major; test: Antileishmanial activity against Leishmania major promastigotes at 100 uM after 72 hrs by MTT assay relative to control; type: functional
[23] = tested on: Escherichia coli; test: Antibacterial activity against Escherichia coli assessed as zone of inhibition by measuring activity index after 24 to 48 hrs by well diffusion method relative to amoxicillin; type: functional, organism-based
[24] = tested on: Leishmania major; test: Antileishmanial activity against Leishmania major promastigotes at 0.1 uM after 72 hrs by MTT assay relative to control; type: functional
[25] = tested on: Escherichia coli; test: Antibacterial activity against Escherichia coli assessed as zone of inhibition by measuring activity index after 24 to 48 hrs by well diffusion method relative to penicillin G; type: functional, organism-based
[26] = tested on: Serratia marcescens; test: Antibacterial activity against Serratia marcescens assessed as zone of inhibition after 24 to 48 hrs by well diffusion method; type: functional
[27] = tested on: Staphylococcus epidermidis; test: Antibacterial activity against Staphylococcus epidermidis assessed as zone of inhibition by measuring activity index after 24 to 48 hrs by well diffusion method relative to ampicillin; type: functional, organism-based
[28] = tested on: Staphylococcus epidermidis; test: Antibacterial activity against Staphylococcus epidermidis assessed as zone of inhibition by measuring activity index after 24 to 48 hrs by well diffusion method relative to penicillin G; type: functional, organism-based
[29] = tested on: Staphylococcus aureus; test: Antibacterial activity against Staphylococcus aureus assessed as zone of inhibition by measuring activity index after 24 to 48 hrs by well diffusion method relative to penicillin G; type: functional, organism-based
[30] = tested on: Leishmania major; test: Antileishmanial activity against Leishmania major promastigotes at 10 uM after 72 hrs by MTT assay relative to control; type: functional
[31] = tested on: HepG2; test: Cytotoxicity against human HepG2 cells by MTT assay; type: functional, cell-based
[32] = tested on: BHK-21; test: Cytotoxicity against golden hamster BHK21 cells at 100 uM after 48 hrs by sulforhodamine B assay; type: cell-based, Mesocricetus auratus; conditions: bhk-21, 48 h
[33] = tested on: BHK-21; test: Cytotoxicity against golden hamster BHK21 cells at 1 uM after 48 hrs by sulforhodamine B assay; type: cell-based, Mesocricetus auratus; conditions: bhk-21, 48 h
[34] = tested on: BHK-21; test: Cytotoxicity against golden hamster BHK21 cells at 0.1 uM after 48 hrs by sulforhodamine B assay; type: cell-based, Mesocricetus auratus; conditions: bhk-21, 48 h
[35] = tested on: BHK-21; test: Cytotoxicity against golden hamsterBHK21 cells at 10 uM after 48 hrs by sulforhodamine B assay; type: cell-based, Mesocricetus auratus; conditions: hamster, bhk-21, 48 h
[36] = tested on: BHK-21; test: Cytotoxicity against golden hamster BHK21 cells after 48 hrs by sulforhodamine B assay; type: cell-based, Mesocricetus auratus; conditions: bhk-21, 48 h
[37] = tested on: Agrobacterium tumefaciens; test: Antitumor activity against Agrobacterium tumefaciens-induced tumor after 21 days by potato disc bioassay technique; type: functional

Diphenylstannanediyl bis 2-(4-methoxy-2-nitrophenylcarbamoyl)benzoate
Activity_index [1]: inactive | inhibition zone (IZ) [2]: inactive | Activity_index [3]: inactive | Activity [4]: 55.5% | inhibition zone (IZ) [5]: 7.33 mm | Activity_index [6]: inactive | Activity_index [7]: inactive | inhibition zone (IZ) [8]: 10 mm | Activity [9]: 67.1% | Activity [10]: Dose-dependent effect | Activity [11]: 73.9% | Activity [12]: 59.6% | Activity_index [13]: inactive | inhibition zone (IZ) [14]: inactive | inhibition zone (IZ) [15]: inactive | inhibition zone (IZ) [16]: inactive | Activity_index [17]: inactive | Activity index [18]: 1.67 | Activity [19]: 60.4% | Activity index [20]: 1.67 | Activity index [21]: 1.67 | Activity [22]: 71.2% | Activity_index [23]: inactive | Activity [24]: 56.6% | Activity_index [25]: inactive | inhibition zone (IZ) [26]: inactive | Activity_index [27]: inactive | Activity_index [28]: inactive | Activity_index [29]: inactive | Activity [30]: 65.5%

CC[C@]1(O)C[C@H]2CN(CCc3c([nH]c4ccccc34)[C@@](C(=O)OC)(c3cc4c(cc3OC)N(C=O)[C@H]3[C@@](O)(C(=O)OC)[C@H](OC(C)=O)[C@]5(CC)C=CCN6CC[C@]43[C@@H]65)C2)C1 [VINCRISTINE]
Activity [4]: 69.8% | Activity [9]: 72.6% | IC50 [31]: 0.042 µg/mL (≈ 0.0509 µM) | Activity [10]: Dose-dependent effect | Activity [11]: 74.5% | Activity [12]: 70.9% | Activity [32]: 74.5% | Activity [33]: 70.9% | Activity [34]: 69.8% | Activity [35]: 72.6% | Activity [36]: Dose-dependent effect | Activity [37]: 100%
